Here are results for eight compounds from patent US20230265116A1, “DEGRADATION OF (EGFR) BY CONJUGATION OF EGFR INHIBITORS WITH E3 LIGASE LIGAND AND METHODS OF USE” (BEIGENE, LTD., priority 2020, published 2023).

Holding throughout (type): cell-based
The subject of experiment [1] is EGFR Del19/T790M/C797S (H1975-clone #28). The experiment is described as follows: EGFR degradation HTRF assay, H1975-clone #28 DTC cells. Conditions: H1975 # 28 DTC cells; for DC50: EGFR degradation, IC50 (DC50) from curve fit, read-out: DC50(nM) H1975 # 28 DTC; for Dmax (%) H1975 # 28 DTC: maximum percentage of inhibition (degradation). The method, boiled down:
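H1975 clones stably overexpressing mutant EGFR, with endogenous EGFR knocked out by sgRNA and homozygosity confirmed by sequencing, were treated 16h at 37° C. with compounds in 0.2% DMSO (top final 10 uM, 5-fold, 8 doses). Lysates were read by HTRF (665/620 nm); DC50 and Dmax came from fitting % degradation versus DMSO control.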

The subject of experiment [2] is EGFR Del19/C797S (H1975-clone #23). The experiment is described as follows: EGFR degradation HTRF assay, H1975-clone #23 DC cells. The note with it: 16h treatment; for H1975 #23 DC Dmax (%): maximum percentage of degradation; for DC50: H1975 #23 DC, read-out: H1975 #23 DC DC50. As for the experimental part: H1975-clone #28(Del19/T790M/C797S) and H1975-clone #23(Del19/C797S). EGFR-Del19/T790M/C797S and EGFR-Del19/C797S were stably expressed in H1975 cell lines by lentivirus-mediated over-expression, respectively. The EGFR over-expressed cells then underwent gene knockout, in which the EGFR targeting sgRNA was designed to only target the endogenous EGFR copies and preserve the exogenous EGFR copies. Followed by the gene knockout, the edited H1975 cells were seeded in 96 well plates at the concentration of 1 cell/well, cultured for about 2 weeks to allow single clones formation. The formed clones were screened by DNA sequencing and whole exon sequencing analysis for the desired edition. H1975-clone #28 and H1975-clone #23 were finally confirmed as homozygous Del19/T790M/C797S EGFR and Del19/C797S EGFR clones, respectively.
BaF3 WT(wild type), BaF3-LTC(L858R/T790M/C797S) and BaF3-DTC(Del19/T790M/C797S) cells are treated with compounds diluted in 0.2% DMSO cell culture medium and incubate for 16h, 37° C., 5% CO2, H1975-#36, H1975-#28, H1975-#23 and HCC827 cells are treated with compounds diluted in 0.2% DMSO cell culture medium on day 2, incubate for 16h, 37° C., 5% CO2.the final concentriation of compounds in all assay is start with 10 uM, 5-fold dilution, total 8 doses were included.
After 16h treatment, add HTRF lysis buffer to each well; seal the plate and incubate 1 hour at room temperature on a plate shaker; Once the cells are lysed, 16 μL of cell lysate are transferred to a PE 384-well HTRF detection plate; 4 μL of pre-mixed HTRF antibodies are added to each well; Cover the plate with a plate sealer, spin 1000 rpm for 1 min, Incubate overnight at room temperature; Read on BMG PheraStar with HTRF protocol (337 nm-665 nm-620 nm).
The inhibition (degradation) percentage of the compound was calculated by the following equation: Inhibition percentage of Compound=100-100×(Signal-low control)/(High control-low control), wherein signal=each test compound group
High control=Cell group with added DMSO and without compound, indicating microplate readings without EGFR degradation;
Dmax is the maximum percentage of inhibition (degradation).
The IC50 (DC50) value of a compound can be obtained by fitting the following equation
Y=Bottom+(TOP−Bottom)/(1+((IC50/X)^hillslope))
Wherein, X and Y are known values, and IC50, Hillslope, Top and Bottom are the parameters obtained by fitting with software. Y is the inhibition percentage (calculated from the equation), X is the concentration of the compound; IC50 is the concentration of the compound when the 50% inhibition is reached. The smaller the IC50 value is, the stronger the inhibitory ability of the compound is. Vice versa, the higher the IC50 value is, the weaker the inhibitory ability of the compound is; Hillslope represents the slope of the fitted curve, generally around 1*; Bottom represents the minimum value of the curve obtained by data fitting, which is generally 0%±20%; Top represents the maximum value of the curve obtained by data fitting, which is generally 100%±20%. The experimental data were fitted by calculating and analyzing with Dotmatics data analysis software.

For experiment [3], the target named is T1, EGFR L858R/C797S (BaF3 LC cells) (Homo sapiens, UniProt P00533, C797S/L858R).
T1 construct: expressed in transfected cells; host or cells: BaF3
T1 sequence (P00533 25-1210 C797S/L858R): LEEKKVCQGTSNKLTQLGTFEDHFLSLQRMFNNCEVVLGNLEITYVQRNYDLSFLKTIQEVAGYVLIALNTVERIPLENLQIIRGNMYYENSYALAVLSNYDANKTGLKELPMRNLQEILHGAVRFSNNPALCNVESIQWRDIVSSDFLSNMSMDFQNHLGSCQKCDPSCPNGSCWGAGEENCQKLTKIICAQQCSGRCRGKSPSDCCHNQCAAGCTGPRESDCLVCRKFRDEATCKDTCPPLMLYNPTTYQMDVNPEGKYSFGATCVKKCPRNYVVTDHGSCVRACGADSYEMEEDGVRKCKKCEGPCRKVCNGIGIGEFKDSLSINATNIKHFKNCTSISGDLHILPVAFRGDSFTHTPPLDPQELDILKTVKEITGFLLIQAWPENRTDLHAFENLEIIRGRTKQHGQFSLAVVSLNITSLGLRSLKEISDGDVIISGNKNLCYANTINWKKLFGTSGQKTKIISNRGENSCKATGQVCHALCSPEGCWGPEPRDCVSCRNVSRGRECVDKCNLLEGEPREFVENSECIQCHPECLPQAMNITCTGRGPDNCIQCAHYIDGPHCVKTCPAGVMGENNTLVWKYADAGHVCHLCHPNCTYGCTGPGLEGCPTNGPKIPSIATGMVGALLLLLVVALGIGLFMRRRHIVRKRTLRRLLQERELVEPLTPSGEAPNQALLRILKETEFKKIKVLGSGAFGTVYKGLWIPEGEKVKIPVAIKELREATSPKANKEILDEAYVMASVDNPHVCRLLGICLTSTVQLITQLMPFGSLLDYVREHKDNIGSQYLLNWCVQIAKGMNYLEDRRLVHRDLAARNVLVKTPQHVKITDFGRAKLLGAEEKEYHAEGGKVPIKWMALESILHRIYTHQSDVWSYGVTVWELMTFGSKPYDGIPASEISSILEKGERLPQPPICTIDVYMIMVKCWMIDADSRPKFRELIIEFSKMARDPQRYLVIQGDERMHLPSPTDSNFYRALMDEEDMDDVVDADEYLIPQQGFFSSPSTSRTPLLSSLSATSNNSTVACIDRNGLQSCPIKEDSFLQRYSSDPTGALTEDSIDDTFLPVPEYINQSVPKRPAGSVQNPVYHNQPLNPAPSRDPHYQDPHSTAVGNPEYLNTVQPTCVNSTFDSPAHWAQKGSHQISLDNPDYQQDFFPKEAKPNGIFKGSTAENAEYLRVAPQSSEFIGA
The experiment is described as follows: EGFR degradation HTRF assay, BaF3 LC cells. Conditions: BaF3 LC, 16h treatment; for DC50: read-out: BaF3 LC DC50; for Dmax: maximum percentage of degradation, read-out: BaF3 LC Dmax (%).

Experiment [4] has as its target T2, EGFR L858R/T790M/C797S (BaF3-LTC cells) (Homo sapiens, UniProt P00533, C797S/L858R/T790M).
T2 construct: expressed in transfected cells; host or cells: BaF3
The experiment is described as follows: EGFR degradation HTRF assay, BaF3-LTC cells. Conditions: BaF3-LTC cells; for DC50: EGFR degradation, IC50 (DC50) from curve fit, read-out: DC50(nM) BaF3-LTC; for Dmax: maximum percentage of inhibition (degradation), read-out: Dmax (%) BaF3-LTC. In short, it runs like this: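 Cells treated 16 h at 37 °C, 5% CO2 in medium with 0.2% DMSO; top final concentration 10 uM, 5-fold dilution, 8 doses. Lysates read by HTRF (665/620 nm); degradation % versus DMSO high control, DC50 from four-parameter fit, Dmax as maximal degradation.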
For orientation: TR-FRET usually uses a lanthanide donor and a delayed reading to cut background.

By DC50 is commonly meant the concentration at which degradation of the target reaches its halfway point. What is called Dmax is the greatest extent of degradation seen.

SMILES strings stand for the structures.

T2 sequence (P00533 25-1210 T790M/C797S/L858R): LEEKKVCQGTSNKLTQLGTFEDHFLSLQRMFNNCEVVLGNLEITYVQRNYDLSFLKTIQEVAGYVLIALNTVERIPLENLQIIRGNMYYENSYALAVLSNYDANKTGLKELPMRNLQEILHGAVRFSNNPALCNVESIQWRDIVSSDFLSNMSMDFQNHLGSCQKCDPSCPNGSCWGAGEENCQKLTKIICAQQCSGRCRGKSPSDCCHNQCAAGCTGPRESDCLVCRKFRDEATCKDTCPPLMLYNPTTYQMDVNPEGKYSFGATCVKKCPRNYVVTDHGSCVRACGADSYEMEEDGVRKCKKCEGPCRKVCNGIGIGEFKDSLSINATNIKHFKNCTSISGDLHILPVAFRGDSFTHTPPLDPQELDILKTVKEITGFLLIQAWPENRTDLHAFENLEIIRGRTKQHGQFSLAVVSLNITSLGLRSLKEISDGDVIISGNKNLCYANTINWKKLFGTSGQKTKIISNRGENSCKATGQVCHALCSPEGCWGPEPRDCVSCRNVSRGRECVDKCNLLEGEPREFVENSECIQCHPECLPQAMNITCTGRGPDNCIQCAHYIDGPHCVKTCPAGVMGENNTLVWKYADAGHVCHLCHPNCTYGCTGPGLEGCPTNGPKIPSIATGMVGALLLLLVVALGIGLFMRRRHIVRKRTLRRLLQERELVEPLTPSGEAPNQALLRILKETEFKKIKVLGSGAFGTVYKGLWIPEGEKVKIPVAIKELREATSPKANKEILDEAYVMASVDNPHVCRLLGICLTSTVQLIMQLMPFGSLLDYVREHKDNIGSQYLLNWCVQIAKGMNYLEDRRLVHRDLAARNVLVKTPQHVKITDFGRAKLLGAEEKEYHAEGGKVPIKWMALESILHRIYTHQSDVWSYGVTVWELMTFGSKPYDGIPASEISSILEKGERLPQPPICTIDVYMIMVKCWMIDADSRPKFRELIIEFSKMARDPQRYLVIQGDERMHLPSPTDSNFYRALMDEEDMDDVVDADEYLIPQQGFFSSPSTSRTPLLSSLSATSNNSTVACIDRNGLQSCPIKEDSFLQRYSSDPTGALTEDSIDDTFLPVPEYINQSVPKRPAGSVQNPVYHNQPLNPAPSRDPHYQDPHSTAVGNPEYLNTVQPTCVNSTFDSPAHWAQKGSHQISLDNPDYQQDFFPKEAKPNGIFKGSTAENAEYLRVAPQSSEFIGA

For `CCOc1cc(N2CCC(N3CCN(CCc4cc(F)cc5c4n(C)c(=O)n5C4CCC(=O)NC4=O)CC3)CC2)c(CC)cc1Nc1ncc(Br)c(Nc2ccc3nc(CC)ccc3c2P(C)(C)=O)n1` (stereo not shown) [Example 462, 3-(4-(2-(4-(1-(4-((5-bromo-4-((5-(dimethylphosphoryl)-2-ethylquinolin-6-yl)amino)pyrimidin-2-yl)amino)-5-ethoxy-2-ethylphenyl)piperidin-4-yl)piperazin-1-yl)ethyl)-6-fluoro-3-methyl-2-oxo-2,3-dihydro-1H-benzo[d]imidazol-1-yl)piperidine-2,6-dione], the 50% degradation concentration (DC50) was determined as 1.12 nM in experiment [1], 3.19 nM in experiment [2], 67.7 nM in experiment [3] and 19.2 nM in experiment [4]. In experiment [1], the “Dmax (%) H1975 # 28 DTC” value was found to be 78.37%. Moreover, the “H1975 #23 DC Dmax (%)” value in experiment [2] is on record as 77.67%.
`CCOc1cc(N2CCC(N3CCN(C(=O)[C@@H]4CCN(c5cc(F)c([C@H]6CCC(=O)NC6=O)c(F)c5)C4)CC3)CC2)c(CC)cc1Nc1ncc(Br)c(Nc2ccc3nc(C)c(F)cc3c2P(C)(C)=O)n1` [Example 577, (R)-3-(4-((R)-3-(4-(1-(4-((5-bromo-4-((5-(dimethylphosphoryl)-3-fluoro-2-methylquinolin-6-yl)amino)pyrimidin-2-yl)amino)-5-ethoxy-2-ethylphenyl)piperidin-4-yl)piperazine-1-carbonyl)pyrrolidin-1-yl)-2,6-difluorophenyl)piperidine-2,6-dione]: the DC50 in experiment [1] is 1.08 nM; in experiment [2] it was 7.94 nM; in experiment [3], 53.8 nM; in experiment [4], 8.4 nM. Moreover, the “Dmax (%) H1975 # 28 DTC” value in experiment [1] is given as 87.91%. The “H1975 #23 DC Dmax (%)” value in experiment [2] amounted to 64.13%.
Regarding `CCOc1cc(N2CCC(N3CCN(CCc4cc(F)c([C@H]5CCC(=O)NC5=O)c(F)c4)CC3)CC2)c(CC)cc1Nc1ncc(Br)c(Nc2ccc3c(=O)n(C)ncc3c2P(C)(C)=O)n1` [Example 502, (R)-3-(4-(2-(4-(1-(4-((5-bromo-4-((5-(dimethylphosphoryl)-2-methyl-1-oxo-1,2-dihydrophthalazin-6-yl)amino)pyrimidin-2-yl)amino)-5-ethoxy-2-ethylphenyl)piperidin-4-yl)piperazin-1-yl)ethyl)-2,6-difluorophenyl)piperidine-2,6-dione], the DC50 amounted to 0.404 nM in experiment [1], 5.49 nM in experiment [2], 57.2 nM in experiment [3] and 3.02 nM in experiment [4]. For the same compound, the “Dmax (%) H1975 # 28 DTC” value in experiment [1] is on record as 88.96%. The “H1975 #23 DC Dmax (%)” value in experiment [2] is given as 75.93%.
On to `CCOc1cc(N2CCC(N3CCN(CCc4cc(C)cc5c4oc(=O)n5C4CCC(=O)NC4=O)CC3)CC2)c(CC)cc1Nc1ncc(Br)c(Nc2ccc3nc(CC)ccc3c2P(C)(C)=O)n1` (stereo not shown) [Example 469, 3-(7-(2-(4-(1-(4-((5-bromo-4-((5-(dimethylphosphoryl)-2-ethylquinolin-6-yl)amino)pyrimidin-2-yl)amino)-5-ethoxy-2-ethylphenyl)piperidin-4-yl)piperazin-1-yl)ethyl)-5-methyl-2-oxobenzo[d]oxazol-3(2H)-yl)piperidine-2,6-dione], for which, in experiment [1], the half-maximal degradation concentration (DC50) stood at 2.6 nM and the “Dmax (%) H1975 # 28 DTC” value is reported as 81.32%. Further, in experiment [2], the “H1975 #23 DC Dmax (%)” value is listed as 73.64% and the DC50 came to 1.48 nM. For the same compound, in experiment [3], the maximal degradation (Dmax) is 89.8% and the DC50 worked out at 21.7 nM. Besides, in experiment [4], the DC50 is 11.6 nM and the Dmax came out at 90%.
Consider `CCc1ccc2c(P(C)(C)=O)c(Nc3nc(Nc4cc(CC)c(N5CCC(N6CCN(CCc7cccc8c7oc(=O)n8C7CCC(=O)NC7=O)CC6)CC5)cc4OC)ncc3Br)ccc2n1` (stereo not shown) [Example 509, 3-(7-(2-(4-(1-(4-((5-bromo-4-((5-(dimethylphosphoryl)-2-ethylquinolin-6-yl)amino)pyrimidin-2-yl)amino)-2-ethyl-5-methoxyphenyl)piperidin-4-yl)piperazin-1-yl)ethyl)-2-oxobenzo[d]oxazol-3(2H)-yl)piperidine-2,6-dione], for which, in experiment [1], the DC50 was found to be 0.887 nM and the “Dmax (%) H1975 # 28 DTC” value was determined as 79.34%. Moreover, in experiment [2], the “H1975 #23 DC Dmax (%)” value came to 77.77% and the DC50 came out at 1.94 nM. In experiment [3], the maximal degradation (Dmax) was found to be 80.4% and the DC50 turned out to be 15.5 nM. In experiment [4], the DC50 stood at 7.93 nM and the Dmax was 92.5%.
For `CCc1cc(Nc2ncc(Br)c(Nc3cc(F)c4nc(C)ccc4c3P(C)(C)=O)n2)c(OC)cc1N1CCC(N2CCN(C(=O)[C@@H]3CCN(c4cc(F)c([C@H]5CCC(=O)NC5=O)c(F)c4)C3)CC2)CC1` [Example 511, (R)-3-(4-((R)-3-(4-(1-(4-((5-bromo-4-((5-(dimethylphosphoryl)-8-fluoro-2-methylquinolin-6-yl)amino)pyrimidin-2-yl)amino)-2-ethyl-5-methoxyphenyl)piperidin-4-yl)piperazine-1-carbonyl)pyrrolidin-1-yl)-2,6-difluorophenyl)piperidine-2,6-dione], in experiment [1], the DC50 came to 1.04 nM and the “Dmax (%) H1975 # 28 DTC” value turned out to be 65%. For the same compound, in experiment [2], the “H1975 #23 DC Dmax (%)” value came out at 67.01% and the DC50 was 3.3 nM. Besides, in experiment [3], the greatest degradation seen (Dmax) turned out to be 88.9% and the DC50 is 9.67 nM. Also, in experiment [4], the DC50 turned out to be 10.6 nM and the Dmax is 92.5%.
`CCc1cc(Nc2ncc(Br)c(Nc3ccc4nc(C)ccc4c3P(C)(C)=O)n2)c(OC)cc1N1CCC(N2CCN(C(=O)[C@@H]3CCN(c4cc(F)c([C@H]5CCC(=O)NC5=O)c(F)c4)C3)CC2)CC1` [Example 750, (R)-3-(4-((R)-3-(4-(1-(4-((5-bromo-4-((5-(dimethylphosphoryl)-2-methylquinolin-6-yl)amino)pyrimidin-2-yl)amino)-2-ethyl-5-methoxyphenyl)piperidin-4-yl)piperazine-1-carbonyl)pyrrolidin-1-yl)-2,6-difluorophenyl)piperidine-2,6-dione]: in experiment [1], the DC50 amounted to 1.17 nM and the “Dmax (%) H1975 # 28 DTC” value amounted to 84.8%. Moreover, in experiment [2], the “H1975 #23 DC Dmax (%)” value amounted to 74.02% and the DC50 amounted to 6.52 nM. For the same compound, the half-maximal degradation concentration (DC50) in experiment [3] stood at 26.1 nM.
Taken in the same sequence, the figures for `CCc1ccc2c(P(C)(C)=O)c(Nc3nc(Nc4cc(CC)c(N5CCC(N6CCN(C(=O)[C@@H]7CCN(c8cc(F)c([C@H]9CCC(=O)NC9=O)c(F)c8)C7)CC6)CC5)cc4OC)ncc3Br)ccc2n1` [Example 489, (R)-3-(4-((R)-3-(4-(1-(4-((5-bromo-4-((5-(dimethylphosphoryl)-2-ethylquinolin-6-yl)amino)pyrimidin-2-yl)amino)-2-ethyl-5-methoxyphenyl)piperidin-4-yl)piperazine-1-carbonyl)pyrrolidin-1-yl)-2,6-difluorophenyl)piperidine-2,6-dione] were 1.37 nM, 82.72%, 59.94%, 4.72 nM and 19.7 nM.
